Source: patent publication US20080009534A1, “S[…] DERIVATIVES USEFUL AS AN[…] A[…] AND METHOD” (Bristol-Myers Squibb Company, priority 2006, published 2008)

What was measured:
human PPARα receptor = target: T1, human PPARα receptor (Homo sapiens, UniProt Q07869); assay: In vitro PPAR agonist functional assay, GAL4-hPPARα-LBD transactivation in HEK293 cells (luciferase); assay type: cell-based; conditions: for EC50: GAL4-hPPARα-LBD in HEK293 cells, half-maximal fold induction; for Emax at 1 µM: HEK293, activity at 1 μM relative to GW2331 at 1 μM, read-out: PPARα % efficacy (intrinsic activity)
T1 construct: transiently transfecting GAL4-hPPARα-LBD or GAL4-hPPARγ-LBD constructs; expressed in transfected cells; host or cells: HEK293 cells stably expressing 5×GAL4RE-Luciferase
T1 sequence (Q07869 239-466 limits assumed): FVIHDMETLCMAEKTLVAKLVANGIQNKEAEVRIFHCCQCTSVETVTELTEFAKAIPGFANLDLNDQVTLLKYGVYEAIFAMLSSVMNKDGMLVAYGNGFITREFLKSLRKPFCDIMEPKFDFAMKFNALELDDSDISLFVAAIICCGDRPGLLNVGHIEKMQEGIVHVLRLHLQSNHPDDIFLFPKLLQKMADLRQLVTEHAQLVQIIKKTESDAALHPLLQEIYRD
Description: (§1) In vitro PPAR agonist functional assays were performed by transiently transfecting GAL4-hPPARα-LBD or GAL4-hPPARγ-LBD constructs respectively into HEK293 (human embryonic kidney) cells stably expressing 5×GAL4RE-Luciferase. Data were normalized for efficacy at 1 μM to known agonists (BRL-49653 for hPPARγ and GW-233 1 for hPPARα). Agonist binding results in an increase in luciferase enzyme activity which can be monitored by measuring luminescence upon cell lysing and the addition of luciferin substrate. EC50 values (μM) for PPARα or γ agonist activity were calculated as the concentration of the test ligand (μM) required for the half-maximal fold induction of HEK293 cells. The “intrinsic activity” of a test ligand is defined as its activity at 1 μM (expressed as a percentage) relative to the activity of the primary standards (GW2331 for PPARα and BRL-49653/rosiglitazone for PPARγ respectively, both tested at 1 μM). […] The ratios of the PPARα:PPARγ EC50 values of compounds of formula I are between 1:2 and 2:1 in this functional assay.

db/db mice = assay: db/db mouse model, plasma glucose and triglycerides after 14 days of oral dosing; assay type: in vivo; conditions: female db/db mice, 10 mg/kg orally once daily for 14 days, fasted plasma on day 15
Description: 8 week old female db/db mice were dosed orally once daily for 14 days at 10 mg/kg with the Example 1a-1c compounds using a vehicle comprised of 5% 1-methyl-pyrrolidinone, 20% polyethylene glycol (PEG400) and 75% 20 mM dibasic sodium phosphate. Plasma samples were obtained from mice fasted overnight (18 hours after last administration of compound) on day 15. The plasma glucose and triglycerides levels were determined and the percentage reductions in both parameters of drug-treated animal relative to vehicle-treated animals are shown in the table below.
It is known by one skilled in the art that the compounds of the present invention normalize plasma glucose levels and decrease plasma triglycerides at doses ≧10 mg/kg in rodent models of type 2 diabetes (e.g. the db/db mouse). The typical administration of said compounds is expected to be between 0.1 to 2,000 mg/day in the clinical setting, and is preferably between 0.5 to 100 mg/day. (Reference for db/db mouse as an in vivo rodent model for antidiabetic efficacy: T. Harrity et al, Diabetes, 2006, 55, 240-248).

human PPARγ receptor = target: T2, human PPARγ receptor (Homo sapiens, UniProt P37231); assay: In vitro PPAR agonist functional assay, GAL4-hPPARγ-LBD transactivation in HEK293 cells (luciferase); assay type: cell-based; conditions: for EC50: GAL4-hPPARγ-LBD in HEK293 cells, half-maximal fold induction; for Emax at 1 µM: HEK293, activity at 1 μM relative to BRL-49653/rosiglitazone at 1 μM, read-out: PPARγ % efficacy (intrinsic activity)
T2 construct: transiently transfecting GAL4-hPPARα-LBD or GAL4-hPPARγ-LBD constructs; expressed in transfected cells; host or cells: HEK293 cells stably expressing 5×GAL4RE-Luciferase
T2 sequence (P37231 238-503 limits assumed): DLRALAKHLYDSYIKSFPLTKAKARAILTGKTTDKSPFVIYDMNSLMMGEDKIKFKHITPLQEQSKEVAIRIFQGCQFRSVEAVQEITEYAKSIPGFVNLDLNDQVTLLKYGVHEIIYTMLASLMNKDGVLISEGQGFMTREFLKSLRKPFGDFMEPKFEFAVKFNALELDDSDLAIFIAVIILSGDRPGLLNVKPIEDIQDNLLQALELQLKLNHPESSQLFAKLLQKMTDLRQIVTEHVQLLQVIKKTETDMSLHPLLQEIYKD
Description: as §1

Cc1ccc(OC(=O)N(CC(=O)O)[C@@H](C)c2ccc(OCc3nc(-c4ccccc4)oc3C)cc2)cc1F [Compound 1a]
EC50 (human PPARα receptor): 6 ± 1 nM | Emax at 1 µM (human PPARα receptor): 92% | melting point: 152.6 °C | % Reduction in Plasma Glucose vs Vehicle-control group (db/db mice): −45% | % Reduction in Plasma Triglycerides vs Vehicle-control group (db/db mice): −45% | EC50 (human PPARγ receptor): 3 ± 1 nM | Emax at 1 µM (human PPARγ receptor): 128%

Cc1cc(OC(=O)N(CC(=O)O)[C@@H](C)c2ccc(OCc3nc(-c4ccccc4)oc3C)cc2)ccc1F [Compound 1b]
EC50 (human PPARα receptor): 8 ± 2 nM | Emax at 1 µM (human PPARα receptor): 95% | % Reduction in Plasma Glucose vs Vehicle-control group (db/db mice): −34% | % Reduction in Plasma Triglycerides vs Vehicle-control group (db/db mice): −50% | EC50 (human PPARγ receptor): 4 ± 2 nM | Emax at 1 µM (human PPARγ receptor): 126%

COc1cccc(OC(=O)N(CC(=O)O)[C@@H](C)c2ccc(OCc3nc(-c4ccc(C)cc4)oc3C)cc2)c1 [Compound 1c]
EC50 (human PPARα receptor): 6 ± 2 nM | Emax at 1 µM (human PPARα receptor): 82% | % Reduction in Plasma Glucose vs Vehicle-control group (db/db mice): −34% | % Reduction in Plasma Triglycerides vs Vehicle-control group (db/db mice): −61% | EC50 (human PPARγ receptor): 5 ± 2 nM | Emax at 1 µM (human PPARγ receptor): 124%
